This is an account of results in patent publication US4843087A (priority 1986, dated 1989).

The structures appear in SMILES notation. In brackets after ≈: the same amount, converted by molar mass.

One assay concerns Polio 2. The assay is described as follows: microbe, parasite or virus in culture. Format: cell-based, poliovirus. The note with it: Enterovirus C, HeLa, read-out: Polio 2 MIC.
The subject of assay [1] is human rhinovirus (HRV) serotypes. The assay is described as follows: microbe, parasite or virus in culture. The note with it: for MIC50: read-out: Rhinovirus MIC50; for IC (MIC80 of serotype panel): read-out: Rhinovirus MIC80. Format: cell-based.

`Cc1cc(CCC=CCOc2ccc(C3=NCCO3)cc2Cl)on1` [Example 68, 5-{5-[2-Chloro-4-(4,5-dihydro-2-oxazolyl)phenoxy]-3-pentenyl}-3-methylisoxazole]: the MIC in the assay with Polio 2 is 0.23 µg/mL (≈ 0.663 µM). Besides, in assay [1], the MIC50 turned out to be 0.4 µg/mL (≈ 1.15 µM) and the IC (MIC80 of serotype panel) was determined as 1 µg/mL.

Turning to `Cc1cc(CCCCCOc2ccc(C3=NCCO3)cc2C=O)on1` [Example 70, 5-{5-[4-(4,5-Dihydro-2-oxazolyl)-2-formylphenoxy]pentyl}-3-methylisoxazole], the MIC in the assay on Polio 2 was 0.1 µg/mL (≈ 0.292 µM). In addition, in assay [1], the MIC50 is 0.85 µg/mL (≈ 2.48 µM) and the IC (MIC80 of serotype panel) came to 1.6 µg/mL.

On to `Cc1cc(CCCCCOc2c(Br)cc(C3=NCCO3)cc2Br)on1` [Example 74, 5-{5-[2,6-Dibromo-4-(4,5-dihydro-2-oxazolyl)phenoxy]pentyl}-3-methylisoxazole], for which, in the assay with Polio 2, the MIC came out at 2 µg/mL (≈ 4.24 µM). In assay [1], the MIC50 turned out to be 0.13 µg/mL (≈ 0.275 µM) and the IC (MIC80 of serotype panel) was determined as 0.59 µg/mL.

On to `Cc1cc(CCCCCOc2ccc(C3=NCC(CO)O3)cc2)on1` (stereo not drawn) [Example 75, 5-{5-[4-(4,5-Dihydro-5-hydroxymethyl-2-oxazolyl)phenoxyl]pentyl}-3-methylisoxazole], for which the MIC in the assay with Polio 2 amounted to 0.69 µg/mL (≈ 2 µM). Besides, in assay [1], the MIC50 was found to be 9.95 µg/mL (≈ 28.9 µM) and the IC (MIC80 of serotype panel) is 35.2 µg/mL.

Take `Cc1cc(CCCCCOc2ccc(C3=NC(C)CO3)c(Cl)c2)on1` (stereo not drawn) [Example 77, 5-{5-[3-Chloro-4-(4,5-dihydro-4-methyl-2-oxazolyl)phenoxy]pentyl}-3-methylisoxazole]: the MIC in the assay with Polio 2 is 0.05 µg/mL (≈ 0.138 µM). In addition, in assay [1], the MIC50 came to 0.088 µg/mL (≈ 0.243 µM) and the IC (MIC80 of serotype panel) is 1.47 µg/mL.

For `Cc1cc(CCCCCOc2ccc(C3=NCCO3)c(C)c2C)on1` [Example 79, 5-{5-[4-(4,5-Dihydro-2-oxazolyl)-2,3-dimethylphenoxy]pentyl}-3-methylisoxazole], the MIC with Polio 2 amounted to 2.3 µg/mL (≈ 6.72 µM). In assay [1], the MIC50 amounted to 0.3 µg/mL (≈ 0.876 µM) and the IC (MIC80 of serotype panel) is 0.7 µg/mL.

Turning to `Cc1cc(CCCCCOc2ccc(C3=NCCO3)c(O)c2C)on1` [Example 80, 5-{5-[4-(4,5-Dihydro-2-oxazolyl)-3-hydroxy-2-methylphenoxy]pentyl}-3-methylisoxazole], in the assay with Polio 2, the MIC came out at 0.11 µg/mL (≈ 0.319 µM). Besides, in assay [1], the MIC50 worked out at 0.13 µg/mL (≈ 0.377 µM) and the IC (MIC80 of serotype panel) amounted to 0.27 µg/mL.

In the case of `Cc1cc(CCCOCOCCOc2ccc(C3=NCCO3)cc2Cl)on1` [Example 82, 5-{3-[[2-[2-Chloro-4-(4,5-dihydro-2-oxazolyl)phenoxy]ethoxy]methoxy]propyl}-3-methylisoxazole], the MIC in the assay with Polio 2 was 2.9 µg/mL (≈ 7.34 µM). Besides, in assay [1], the MIC50 stood at 1.2 µg/mL (≈ 3.04 µM) and the IC (MIC80 of serotype panel) is 5.4 µg/mL.

As to `Cc1cc(CCCOCOCCOc2ccc(C3=NCCO3)cc2C)on1` [Example 83, 5-{3-[[2-[4-(4,5-Dihydro-2-oxazolyl)-2-methylphenoxy]ethoxy]methoxy]propyl}-3-methylisoxazole], the MIC with Polio 2 came to 5 µg/mL (≈ 13.4 µM). In assay [1], the MIC50 came out at 3.75 µg/mL (≈ 10 µM) and the IC (MIC80 of serotype panel) worked out at 99 µg/mL.

Consider `Cc1cc(CCCCCOc2ccc(C3=NCCO3)cc2C(F)F)on1` [Example 84, 5-{5-[2-Difluoromethyl-4-(4,5-dihydro-2-oxazolyl)phenoxy]pentyl}-3-methylisoxazole], for which the MIC with Polio 2 was found to be 0.11 µg/mL (≈ 0.302 µM). In assay [1], the MIC50 was determined as 0.082 µg/mL (≈ 0.225 µM) and the IC (MIC80 of serotype panel) is 0.72 µg/mL.

As for `Cc1cc(CCCCCOc2ccc(C3=NCCO3)cc2C(=O)O)on1` [Example 86, 5-{5-[2-Carboxy-4-(4,5-dihydro-2-oxazolyl)phenoxy]pentyl}-3-methylisoxazole], the MIC in the assay on Polio 2 came to 2.6 µg/mL (≈ 7.25 µM). Besides, in assay [1], the MIC50 stood at 99 µg/mL (≈ 276 µM) and the IC (MIC80 of serotype panel) was found to be 99 µg/mL.

For the compound `Cc1cc(CCCCCOc2ccc(-c3ncco3)cc2)on1` [Example 88, 3-Methyl-5-{5-[4-(2-oxazolyl)phenoxy]pentyl}isoxazole], in the assay on Polio 2, the MIC came out at 0.025 µg/mL (≈ 0.08 µM). Besides, in assay [1], the MIC50 worked out at 0.38 µg/mL (≈ 1.22 µM) and the IC (MIC80 of serotype panel) came out at 25.2 µg/mL.

For `Cc1cc(CCCCCOc2ccc(-c3nc(C)c(C)o3)cc2C)on1` [Example 90, 5-{5-[4-(4,5-Dimethyl-2-oxazolyl)-2-methylphenoxy]pentyl}-3-methylisoxazole], the MIC in the assay on Polio 2 was 1.5 µg/mL (≈ 4.23 µM). Besides, in assay [1], the MIC50 came out at 0.2 µg/mL (≈ 0.564 µM) and the IC (MIC80 of serotype panel) came to 0.49 µg/mL.

Regarding `Cc1cc(CCCCCOc2ccc(-c3ncco3)cc2Br)on1` [Example 92, 5-{5-[2-Bromo-4-(2-oxazolyl)phenoxy]pentyl}-3-methylisoxazole], the MIC with Polio 2 came out at 0.07 µg/mL (≈ 0.179 µM). In assay [1], the MIC50 was found to be 0.07 µg/mL (≈ 0.179 µM) and the IC (MIC80 of serotype panel) amounted to 0.61 µg/mL.

Turning to `Cc1cc(CCCCCOc2ccc(C3=NCCCO3)cc2)on1` [Example 95, 5,6-Dihydro-2-{4-[5-(3-methyl-5-isoxazolyl)pentyloxy]phenyl}-4H-1,3-oxazine], the MIC in the assay with Polio 2 amounted to 0.15 µg/mL (≈ 0.457 µM). In addition, in assay [1], the MIC50 was 1.65 µg/mL (≈ 5.02 µM) and the IC (MIC80 of serotype panel) is 26.3 µg/mL.

Consider `Cc1cc(CCCCCOc2ccc(-c3cnco3)cc2)on1` [Example 96(b), 3-Methyl-5-{5[4-(5-oxazolyl)phenoxy]pentyl}isoxazole], for which the MIC with Polio 2 worked out at 0.095 µg/mL (≈ 0.304 µM). Further, in assay [1], the MIC50 was determined as 1.4 µg/mL (≈ 4.48 µM) and the IC (MIC80 of serotype panel) amounted to 2.5 µg/mL.

As for `Cc1cc(CCCCCOc2c(Cl)cc(-c3cnco3)cc2Cl)on1` [Example 98, 5-{5-[2,6-Dichloro-4-(5-oxazolyl)phenoxy]pentyl}-3-methylisoxazole], the MIC with Polio 2 came out at 12.5 µg/mL (≈ 32.8 µM). In addition, in assay [1], the MIC50 stood at 0.21 µg/mL (≈ 0.551 µM) and the IC (MIC80 of serotype panel) was 2.8 µg/mL.

As to `Cc1cc(COCCCCCOc2ccc(C3=NCCO3)cc2)on1` [Example 99, 5-{[[5-[4-(4,5-Dihydro-2-oxazolyl)phenoxy]pentyl]oxy]methyl}-3-methylisoxazole], the MIC in the assay on Polio 2 is 0.27 µg/mL (≈ 0.784 µM). Moreover, in assay [1], the MIC50 turned out to be 1.3 µg/mL (≈ 3.77 µM) and the IC (MIC80 of serotype panel) is 2.3 µg/mL.

Consider `Cc1cc(CCCCCOc2ccc(C3=NCCO3)cc2N(C)C)on1` [Example 100, 5-{5-[4-(4,5-Dihydro-2-oxazolyl)-2-(dimethylamino)phenoxy]pentyl}-3-methylisoxazole], for which the MIC with Polio 2 is 6.2 µg/mL (≈ 17.3 µM). In assay [1], the MIC50 came to 0.76 µg/mL (≈ 2.13 µM) and the IC (MIC80 of serotype panel) is 99 µg/mL.

As for `CCC(=O)Nc1cc(C2=NCCO2)ccc1OCCCCCc1cc(C)no1` [Example 102, 5-{5-[4-(4,5-Dihydro-2-oxazolyl)-2-(propionylamino)phenoxy]pentyl}-3-methylisoxazole], in the assay with Polio 2, the MIC came out at 12.5 µg/mL (≈ 32.4 µM). Further, in assay [1], the MIC50 came to 12.5 µg/mL (≈ 32.4 µM) and the IC (MIC80 of serotype panel) was determined as 99 µg/mL.

`Cc1cc(CCCCC[S+]([O-])c2ccc(C3=NCCO3)cc2)on1` (stereo not drawn) [Example 104, 5-{5-[[4-(4,5-Dihydro-2-oxazolyl)phenyl]sulfinyl]pentyl}-3-methylisoxazole]: the MIC in the assay on Polio 2 turned out to be 12.5 µg/mL (≈ 36.1 µM). In assay [1], the MIC50 came out at 9.85 µg/mL (≈ 28.4 µM) and the IC (MIC80 of serotype panel) stood at 12.5 µg/mL.

On to `Cc1cc(CCCCCOc2c(Cl)cc(C3=NCC(C)O3)cc2Cl)on1` (stereo not drawn) [Example 108, 5-{5-[2,6-Dichloro-4-(4,5-dihydro-5-methyl-2-oxazolyl)phenoxy]pentyl}-3-methylisoxazole], for which the MIC with Polio 2 came out at 2.6 µg/mL (≈ 6.54 µM). For the same compound, in assay [1], the MIC50 amounted to 0.13 µg/mL (≈ 0.327 µM) and the IC (MIC80 of serotype panel) was 0.34 µg/mL.

In the case of `Cc1cc(CC/C=C/COc2c(Cl)cc(C3=NCCO3)cc2Cl)on1` [Example 113, 5-{5-[2,6-Dichloro-4-(4,5-dihydro-2-oxazolyl)phenoxy]-3-pentenyl}-3-methylisoxazole (E-isomer)], in the assay with Polio 2, the MIC was found to be 0.4 µg/mL (≈ 1.05 µM). Moreover, in assay [1], the MIC50 worked out at 0.09 µg/mL (≈ 0.236 µM) and the IC (MIC80 of serotype panel) was found to be 0.167 µg/mL.

Regarding `Cc1cc(CCCCCCCOc2c(Cl)cc(C3=NCCO3)cc2Cl)on1` [Example 114, 5-{7-[2,6-Dichloro-4-(4,5-dihydro-2-oxazolyl)phenoxy]heptyl}-3-methylisoxazole], the MIC with Polio 2 worked out at 0.48 µg/mL (≈ 1.17 µM). Also, in assay [1], the MIC50 was 0.22 µg/mL (≈ 0.535 µM) and the IC (MIC80 of serotype panel) was determined as 0.62 µg/mL.

As to `Cc1cc(CCCOc2c(Cl)cc(C3=NCCO3)cc2Cl)on1` [Example 115, 5-{3-[2,6-Dichloro-4-(4,5-dihydro-2-oxazolyl)phenoxy]propyl}-3-methylisoxazole], the MIC with Polio 2 is 3.1 µg/mL (≈ 8.73 µM). Also, in assay [1], the MIC50 was determined as 0.04 µg/mL (≈ 0.113 µM) and the IC (MIC80 of serotype panel) was found to be 0.58 µg/mL.

Regarding `OCc1cc(CCCCCOc2c(Cl)cc(C3=NCCO3)cc2Cl)on1` [Example 116, 5-{5-[2,6-Dichloro-4-(4,5-dihydro-2-oxazolyl)phenoxy]pentyl}-3-isoxazolemethanol], the MIC in the assay with Polio 2 amounted to 3.1 µg/mL (≈ 7.76 µM). Moreover, in assay [1], the MIC50 came out at 0.13 µg/mL (≈ 0.326 µM) and the IC (MIC80 of serotype panel) turned out to be 0.5 µg/mL.

For `COCc1cc(CCCCCOc2c(Cl)cc(C3=NCCO3)cc2Cl)on1` [Example 117, 5-{5-[2,6-Dichloro-4-(4,5-dihydro-2-oxazolyl)phenoxy]pentyl}-3-(methoxymethyl)isoxazole], the MIC in the assay with Polio 2 was 0.39 µg/mL (≈ 0.944 µM). In assay [1], the MIC50 turned out to be 0.09 µg/mL (≈ 0.218 µM) and the IC (MIC80 of serotype panel) was determined as 0.31 µg/mL.

As to `Cc1cc(CCCCCOc2ccc(-c3nc(C)co3)cc2)on1` [Example 133, 5-{5-[4-(4-Methyl-2-oxazolyl)phenoxy]pentyl}-3-methylisoxazole], the MIC in the assay on Polio 2 was 0.09 µg/mL (≈ 0.276 µM). Besides, in assay [1], the MIC50 stood at 0.16 µg/mL (≈ 0.49 µM) and the IC (MIC80 of serotype panel) is 0.68 µg/mL.

Take `Cc1cc(CCCCCOc2ccc(-c3nc(C)c(C)o3)cc2Cl)on1` [Example 134, 5-{5-[2-Chloro-4-(4,5-dimethyl-2-oxazolyl)phenoxy]pentyl}-3-methylisoxazole]: the MIC in the assay with Polio 2 came out at 1.9 µg/mL (≈ 5.07 µM). Moreover, in assay [1], the MIC50 was determined as 0.29 µg/mL (≈ 0.774 µM) and the IC (MIC80 of serotype panel) was 0.5 µg/mL.

Take `Cc1cc(CCCCCCCOc2ccc(-c3nc(C)co3)cc2)on1` [Example 135, 5-{7-[4-(4-Methyl-2-oxazolyl)phenoxy]heptyl}-3-methylisoxazole]: the MIC in the assay with Polio 2 worked out at 2.6 µg/mL (≈ 7.34 µM). In assay [1], the MIC50 is 0.335 µg/mL (≈ 0.945 µM) and the IC (MIC80 of serotype panel) was 0.6 µg/mL.

In the case of `CN(C)Cc1cc(CCCCCCCOc2ccc(C3=NCCO3)cc2)on1` [Example 136(b), 5-{7-[4-(4,5-Dihydro-2-oxazolyl)phenoxy]heptyl}-3-(dimethylaminomethyl)isoxazole], the MIC with Polio 2 amounted to 0.62 µg/mL (≈ 1.61 µM). In assay [1], the MIC50 worked out at 0.88 µg/mL (≈ 2.28 µM) and the IC (MIC80 of serotype panel) was 1.47 µg/mL.
